# Assay results as given in PubChem BioAssay AID179 (DTP/NCI, 2004).
# Several values for one entry are separate records, joined by “and”; a condition that tells them apart may be missing. Identical values can stand only once. Counter-ions that a name gives are not always drawn. Activity calls are given as the source filed them.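 How the source made its calls: active means compounds giving half or more protection of infected cells from virus-caused growth loss, again on retest; inactive means the rest.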 Where a SMILES comes first, the peptide text is derived from it. [ ]: non-standard residue; d: D form. The star is where a group is joined. Ac5c = NC1(C(=O)O)CCCC1; Tfa = O=C(C(F)(F)F)*
# Test system: CEM cells HIV-1 protection, formazan growth assay
# Assay: NCI AIDS Antiviral Assay
# Details: for IC50: measured here: growth of uninfected CEM cells
# In short: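 Screen of anti-HIV-1 activity in human CEM cells using a formazan-based growth measurement at five drug concentrations. Hits with 50% or greater protection were repeated, and confirmation required reproducible complete protection.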
Compound,EC50 [µM],IC50,outcome
N#Cc1ccc(CSC2=C(c3ccc(Cl)cc3)S/C(=C3\SC(SCc4ccc(C#N)cc4)=C(c4ccc(Cl)cc4)S3)S2)cc1,> 100,> 100 µM,
O=S1(=O)c2ccccc2C(Nc2ccccc2)N1c1ccccc1 (stereo not drawn),> 200,66.1 µM,
COCOc1ccc(C2(O)Oc3cc(OCOC)ccc3C2C)c(O)c1 (stereo not drawn),> 200,24 µM,
CC(=O)/C(=C/n1ccc(=O)[nH]c1=S)C(=O)Nc1ccccc1,> 200,> 200 µM,
COC(=O)c1c(COC(=O)NC(C)C)c2n(c1C)CS(=O)(=O)C2,> 200,> 200 µM,
CSc1nc2c(c(O)c(C)c(=O)n2C2OCC(OC(C)=O)C(OC(C)=O)C2OC(C)=O)c(=O)n1C (stereo not drawn),> 70.8,> 70.8 µM,
Cc1ccc(S(=O)(=O)c2ccc(N)cc2)cc1,,,inactive
COC(=O)C[C@@H]1C(C)(C)[C@@H]2O[C@@]34C[C@@H]2C(=O)[C@]1(C)[C@H]3CC[C@@]1(C)[C@H](c2ccoc2)OC(=O)C[C@]14O,> 200,120 µM,
CN1C(=O)CN(NC(=O)C2=C(O)c3ccc(Br)cc3S(=O)(=O)N2)C1=S,> 200,51.3 µM,
CN(C)c1ccc(CC2CCc3ccccc32)cc1 (stereo not drawn),> 20.9,> 20.9 µM,
C/C(=N/NC(=S)N1CCCCCC1)c1ccccc1O,> 200,4.27 µM,
COc1ccc(CCc2cc(OC)c(O)c(OC)c2)cc1,> 200,10.5 µM,
COC(=O)C1(NC(=O)C(C)NC(=O)C(CCCCN)NC(=O)C(CC(C)C)NC(C)=O)CCCC1 (stereo not drawn) (Ac-LKA[Ac5c]-OMe; configuration not given here),> 200,> 200 µM,
C[C@H](CSC(=O)c1ccccc1)C(=O)N1c2ccccc2C[C@H]1C(=O)O,> 200,107 µM,
FC(F)(F)c1ccc(C2=N/S(c3ccccc3)=N\C(c3ccc(C(F)(F)F)cc3)=N/S(c3ccccc3)=N\2)cc1 (stereo not drawn),> 50.1,> 50.1 µM,
COc1ccccc1N=NC1=C2Nc3ccccc3N=C1N(c1ccccc1OC)C(=S)N2c1ccccc1C,,,inactive
O=C(/C=C/c1c(O)ccc2ccccc12)c1ccccc1,> 182,> 100 µM,
O=C(Nc1ccc(Oc2ccc(Cl)cc2)c(Cl)c1)c1cc(I)cc(I)c1O,> 200,11.5 µM,
CC[C@@]1(O)C(=O)OCc2c1cc1n(c2=O)Cc2cc3cc(OC)ccc3nc2-1,> 0.1,0.0186 µM,
N=c1oc2ccc(Cl)cc2cc1C(=O)NCc1ccccc1,> 200,,
CN1C(=O)/C(=C2\SC(=O)N(CN3CCCCC3)C2=O)c2ccccc21,> 200,27.5 µM,
Cn1c(=O)nc2n(CCO)ccnc-2c1=O,> 100,> 100 µM,

Compound,EC50 [µM],IC50,outcome
CN(C)NC(=S)C(F)(F)C(F)(F)F,> 200,10.2 µM,
C1CC[C@H]2SSC3CCCC[C@H]3SSC2C1 (stereo partly drawn),> 17.8,> 17.8 µM,
Fc1cccc2c(=S)cn[nH]c12,> 200,186 µM,
O=C(O)C12CCCC(CCC1)C2,,,inactive
Cc1cc([N+](=O)[O-])c2c(c1)P(=O)(O)c1cc(C)cc([N+](=O)[O-])c1O2,> 200,> 200 µM,
O=C(O)CC(NC(=O)C(F)(F)F)C(=O)NC(Cc1ccc(O)cc1)C(=O)O (stereo not drawn) (Tfa-Asp-Tyr-OH; configuration not given here),> 200,> 200 µM,
CCOC(=O)C1SC(=Nc2ccc(Cl)cc2Cl)N=C1C (stereo not drawn),,,inactive
C=CCC(C)C12CCNC(Cc3ccc(O)cc31)C2C (stereo not drawn),> 200,> 200 µM,
CC(C)C1=CC23CCC4C(C)(C(=O)O)CCCC4(C)C2CC1C1C(=O)N(c2cccc(N4C(=O)C5C6CC7C8(C)CCCC(C)(C(=O)O)C8CCC7(C=C6C(C)C)C5C4=O)c2)C(=O)C13 (stereo not drawn),> 269,13.2 µM,
COC12C(COC(=O)NCCO)C3=C(C(=O)C(C)=C(N)C3=O)N1CC1NC12 (stereo not drawn),> 331,1.15 µM,
COc1ccc2c(=O)c(C)c(/C=C/c3ccco3)oc2c1,> 158,27.5 µM,
COC(=O)C1C2OC(C)(C)OC2CN1S(=O)(=O)c1ccc(C)cc1 (stereo not drawn),,,inactive
C=C1C(=O)OC2/C=C(/CO)C3(O)CC(O)C(C)(CC(OC(=O)/C(C)=C/C)C12)O3 (stereo not drawn),> 631,1.17 µM,
COc1ccc(OC)c(Cc2c(OC)ccc(OC)c2O)c1O,,,inactive
Cc1ccc(Nc2cccc3c2C(=O)c2cccc(Nc4ccc(C)cc4S(=O)(=O)O)c2C3=O)c(S(=O)(=O)O)c1,,,active
O=[N+]([O-])c1cc(S(=O)(=O)c2ccc(S)c([N+](=O)[O-])c2)ccc1S,,,inactive
O=c1c2ccccc2nc(N/N=C/c2ccc([N+](=O)[O-])cc2)n1-c1ccccc1,> 50.1,> 50.1 µM,
CN(C)c1ccc(-n2cccc2)cc1,> 200,> 200 µM,
O=[N+]([O-])c1cc(C2SCc3nc4ccccc4n32)ccc1Cl (stereo not drawn),,,inactive
NNc1ncnc(NN)c1Br,> 200,56.2 µM,
COC(=O)C(=O)C(C(C)=O)C(=O)C(=O)Nc1ccc(C)cc1C (stereo not drawn),> 112,> 112 µM,
N#C/C(C(=S)NCc1ccccc1)=C(/N)N1CCCC1,> 200,148 µM,

Compound,EC50 [µM],IC50,outcome
CCOC(=O)NC(=O)c1cn(CC(=O)NCC(=O)NCC(=O)N2CCN(CCn3c(C)nc(C(N)=O)c3N)CC2)c(=O)[nH]c1=O,,,inactive
O=C(CCl)N1CCN(C(c2ccccc2)c2ccccc2)CC1,> 79.4,3.72 µM,
N#Cc1nc(CN2C(=O)c3ccccc3C2=O)oc1N,5.89,> 200 µM,
Cn1c(O)c(N=NC(=O)Cc2c[nH]c3ccccc23)c2ccccc21,> 200,> 200 µM,
CCOC(=O)C1C(C)C2(C#N)C(=N)OC1(C)C2(C#N)C#N (stereo not drawn),> 200,83.2 µM,
COc1ccc2c(c1)CCN1CCc3ccccc3CC21 (stereo not drawn),> 200,53.7 µM,
CCCCCCCCCCCCCCCCOP(=O)(O)Oc1ccc(/C=C\c2ccc(OP(=O)(O)OCCCCCCCCCCCCCCCC)cc2)cc1,,,inactive
OC1(c2ccccc2)Oc2ccccc2C(c2ccccc2)C1c1ccccc1 (stereo not drawn),> 200,9.55 µM,
Cc1c2c(n3c(nc4ccccc43)c1C#N)N(c1ccc(F)cc1)CC2,> 200,> 200 µM,
O=S(c1ccccc1)c1ccccc1,> 447,389 µM,
Cc1cn(C2OC(CO)C(CC(N)=O)C2O)c(=O)[nH]c1=O (stereo not drawn),> 200,> 200 µM,
O=C(O)CC[C@H](NC(=O)c1ccc(-n2nc3ccc(O)cc3nc2=O)cc1)C(=O)O,> 145,> 145 µM,
N#Cc1c(-c2ccccc2)cc(-c2ccccc2)n(C2OC(CO)C(O)C(O)C2O)c1=O (stereo not drawn),> 219,214 µM and > 60.3 µM,
O=C(Cn1c(=O)oc2ccc(C(=O)c3ccc(F)cc3)cc21)c1ccc([N+](=O)[O-])cc1,> 200,25.1 µM,
O=[N+]([O-])C(=C(Sc1ccccc1)Sc1ccccc1)C(Cl)=C(Cl)Cl,,,inactive
NC1=NC(=O)[C@H](CSCc2ccccc2)N1C(=O)OCc1ccccc1,> 200,> 200 µM,
COc1ccc(NC(=O)CC(=O)NN)cc1,> 200,> 200 µM,
COc1ccc2c(=O)c([Se]c3coc4cc(OC)ccc4c3=O)coc2c1,> 60.3,> 60.3 µM,
C=C1CN(S(=O)(=O)c2ccc(C)cc2)CCCN(C(C)CC)CCCN(S(=O)(=O)c2ccc(C)cc2)C1 (stereo not drawn),> 200,> 200 µM,
CC(C)C(=O)Nc1nc2c(ncn2C2OC(CO)C(O)C2O)c(=O)[nH]1 (stereo not drawn),> 708,513 µM,
Cc1cc(C)c(C2=NO[C@@H]3C(=O)N(c4ccc(Cc5ccc(N6C(=O)[C@H]7C(c8c(C)cc(C)cc8C)=NO[C@H]7C6=O)cc5)cc4)C(=O)[C@H]23)c(C)c1,> 7.59,> 7.59 µM,
CC1=Cc2cccc(C)c2C(=O)C1=O,> 38.9,6.46 µM,

Compound,EC50 [µM],IC50,outcome
N#Cc1c(O)c2ccccc2[nH]c1=O,> 200,> 200 µM,
O=c1[nH]c(Br)nc2n[nH]nc12,> 200,4.9 µM,
N#C/C(=C/c1cccs1)c1cccs1,> 200,> 200 µM,
Cc1cn(C2CC(N=[N+]=[N-])C(COC(=O)CCCCCCCCCCBr)O2)c(=O)[nH]c1=O (stereo not drawn),,110 µM,active
O=C(O)CSc1c([N+](=O)[O-])cc(C(F)(F)F)cc1[N+](=O)[O-],> 200,43.7 µM,
COc1ccc2[nH]c(Br)c(CCNC(C)=O)c2c1,> 200,> 200 µM,
CN1CCN2c3ccccc3CC(C#N)(C#N)C2C1 (stereo not drawn),,,inactive
CCc1nnc(CC)n1-n1c(Cc2ccccc2)n[nH]c1=O,> 200,> 200 µM,
O=c1c(-c2ccc(O)c(O)c2)coc2cc(O)cc(O)c12,> 200,15.8 µM,
O=C1NCc2c1[nH]c(=O)[nH]c2=O,> 155,> 155 µM,
O=C1CC2(CC=CCC23OCCO3)CC(CI)O1 (stereo not drawn),> 200,> 200 µM,
C=CCN(CC=C)C(=O)COc1cc2c(O)c3c(O)c(C)c4c(c13)C(=O)C(C)(O/C=C\C(OC)C(C)C(OC(C)=O)C(C)C(O)C(C)C(O)C(C)/C=C\C=C(\C)C(=O)N2)O4 (stereo not drawn),> 200,17 µM,
CSc1ncc2c(C#N)c3sc4ccccc4n3c(=O)c2n1,> 200,> 200 µM,
CCOc1ccccc1NC(=O)CC1SC(=Nc2ccc([N+](=O)[O-])cc2)NC1=O (stereo not drawn),> 229,93.3 µM,
ClCCCSSCCCCl,> 200,31.6 µM,
O=C(CC(O)(C(F)(F)F)C(F)(F)F)c1cccs1,> 200,> 200 µM,
CCOP(=O)(OCC)C(c1ccc(F)cc1)N(C(=O)NC(F)(F)F)c1ccc(F)cc1 (stereo not drawn),> 200,> 200 µM,
CCCCc1ccc(-n2sc3ncccc3c2=O)cc1,1.74,8.32 µM,
Brc1ccc(N=c2nc3ccccn3n3nc(-c4ccccc4)cc23)cc1,> 24,> 24 µM,
Cc1nn(-c2ccccc2)c2c1N=C(C(=O)O)CC(c1ccccc1)=N2,> 200,91.2 µM,
